From US11945784B2, “IRE1 small molecule inhibitors” (Cornell University, priority 2018, dated 2024)

Assays:
IRE1α [1] = target: T1, IRE1α (Homo sapiens (Human), UniProt O75460); test: In vitro FRET assay; type: biochemical; conditions: XBP1 RNA probe
In short: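 IRE1α (diluted to 2 nM) in citrate buffer pH 7.15 with serially diluted compound; FAM/Iowa Black-quenched XBP1 RNA probe (wildtype or non-spliceable mutant) added, fluorescence read […]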

IRE1 = IRE1 (Homo sapiens (Human), UniProt O75460); test: qPCR assay of XBP1 splicing; type: cell-based; conditions: 293T cells, tunicamycin-induced ER stress
Chain of IRE1 (O75460 19-977): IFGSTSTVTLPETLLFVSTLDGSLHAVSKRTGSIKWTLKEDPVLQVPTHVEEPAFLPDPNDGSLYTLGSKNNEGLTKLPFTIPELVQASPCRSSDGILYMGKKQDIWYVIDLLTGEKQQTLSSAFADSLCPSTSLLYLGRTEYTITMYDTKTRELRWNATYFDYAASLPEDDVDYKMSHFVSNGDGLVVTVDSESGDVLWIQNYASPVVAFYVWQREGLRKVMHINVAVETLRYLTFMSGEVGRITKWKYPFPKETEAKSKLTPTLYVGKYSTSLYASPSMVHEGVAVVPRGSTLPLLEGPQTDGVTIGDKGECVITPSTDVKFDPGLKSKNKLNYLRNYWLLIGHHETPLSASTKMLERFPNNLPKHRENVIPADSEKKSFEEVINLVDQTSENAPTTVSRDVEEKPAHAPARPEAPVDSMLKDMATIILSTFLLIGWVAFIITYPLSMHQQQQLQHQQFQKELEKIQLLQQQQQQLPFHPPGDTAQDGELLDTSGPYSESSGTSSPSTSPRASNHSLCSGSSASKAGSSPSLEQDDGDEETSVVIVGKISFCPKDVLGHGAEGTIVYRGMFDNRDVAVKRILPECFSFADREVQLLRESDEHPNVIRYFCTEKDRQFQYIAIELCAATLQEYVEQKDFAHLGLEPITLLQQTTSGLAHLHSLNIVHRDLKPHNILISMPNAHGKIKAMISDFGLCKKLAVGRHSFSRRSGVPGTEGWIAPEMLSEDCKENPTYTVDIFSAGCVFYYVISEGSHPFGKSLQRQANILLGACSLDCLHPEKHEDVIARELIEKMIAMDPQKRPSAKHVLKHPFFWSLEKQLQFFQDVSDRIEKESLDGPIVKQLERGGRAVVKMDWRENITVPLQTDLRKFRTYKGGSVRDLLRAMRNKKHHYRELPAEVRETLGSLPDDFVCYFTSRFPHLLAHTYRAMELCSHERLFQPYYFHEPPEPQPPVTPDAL
Protocol: A quantitative PCR (qPCR) assay was performed to evaluate the ability of compound 17 and compound 23 to inhibit IRE1. To perform the qPCR assay, 50,000 293T cells were plated in each well of a flat-bottomed 96 well plates in duplicate. Test compounds or DMSO control were diluted to 4× their final concentration and 50 microliters were added to the cells. Compounds were incubated for 1 hour, then 50 microliters of 4× concentrated tunicamycin (8 ug/mL) were added to the cells to induce ER stress. ER stress was allowed to accumulate for 6 hours, after which the supernatant was removed and the cells were lysed with 150 uL of RLT lysis buffer (Qiagen). Samples were frozen at −80 degrees Celsius until RNA was isolated with the RNeasy 96 kit (Qiagen) according to the manufacturer's recommended protocol. The samples were used for subsequent RT-qPCR analysis of beta-actin, XBP1s, total XBP1 and SEC24D. Gene expression was evaluated by quantitative PCR for XBP1s, total XBP1 and SEC24D transcripts using the 2^(−ΔCT) method for calculating normalized gene expression. Gene expression levels were normalized to ACTB transcripts. XBP1 splicing is calculated as XBP1s expression divided by total XBP1 expression. […] See FIG. 3A (Compound 17) and FIG. 3B (Compound 23).

293T cells = test: Growth assay (cytotoxicity); type: cell-based; conditions: Homo sapiens, HEK-293T, 48 h, 2 day incubation, read-out: percentage growth at 5 uM
Protocol: A growth assay is performed to evaluate the compounds disclosed in Table 1 for cytotoxicity. Briefly, 5,000,000 293T cells are resuspended in 18 mL of cDMEM for a final concentration of 277,777 cells/mL. 180 μL (50,000 cells) cDMEM was seeded per well in 96 well flat bottom plate, with some wells left unfilled. In a 96 well plate, […] cDMEM and 1 uL of any one of the compounds disclosed herein. 133.3 uL cDMEM is added to wells 1, 2, 3, 5, 6, 7, 9, 10, and 11 of row A. Wells are serially diluted with 66.7 uL (highest concentration on right, lowest on left) to the total concentrations shown below. 20 uL of each dilution is transferred in duplicate to the cells plated in the 96-well plate. The plate is then placed in a humidified chamber for a 2 day incubation, and then photographed (media is more yellow in wells with potent cell growth). Absorbance is then measured at […] (lower for more acidic media) and […] (higher for more acidic media).

IRE1α [2] = target: T1, IRE1α; test: In vitro luciferase assay (IRE1α Endoribonuclease Nanoluciferase Assay); type: cell-based; conditions: 293T cells, XBP1 luciferase reporter
In short: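 293T cells transiently transfected with a PGK-Luc2-P2A-XBP1u-nanoluciferase-PEST reporter for IRE1α-dependent XBP1 splicing, replated, and treated next day with ER stressors ± inhibitors. Lysates read sequentially for luminescence (OneGlo, then Stop and Glo), 1000 ms integration.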

T1 sequence (O75460 19-977): as above

SMILES | IC50 (IRE1α [1]) [nM] | IC50 (IRE1) [nM] | EC50 (IRE1α [2]) [nM] | viability at 5 µM (293T cells) [%]
COc1nc(NS(=O)(=O)c2ccc(F)c(F)c2Cl)ccc1/C=C/c1cnc(NC2CCC(N(C)C)CC2)nc1 (centres unmarked) [Compound 41, 2-chloro-N-(5-((E)-2-(2-(((1r,4r)-4-(dimethylamino)cyclohexyl)amino)pyrimidin-5-yl)vinyl)-6-methoxypyridin-2-yl)-3,4-difluorobenzenesulfonamide] | ≤ 1 |  | 5 to 50 | > 75
CCc1nc(NS(=O)(=O)c2ccccc2Cl)ccc1C=Cc1cnc(NC2CCC(N)CC2)nc1 (centres unmarked) [Compound 45, N-(5-(2-(2-((1r,4r)-4-aminocyclohexyl)amino)pyrimidin-5-yl)vinyl)-6-ethylpyridin-2-yl)-2-chlorobenzenesulfonamide] | ≤ 1 |  | 5 to 50 | > 75
CCc1nc(NS(=O)(=O)c2ccccc2Cl)ccc1/C=C/c1cnc(NC2CCC(NC)CC2)nc1 (centres unmarked) [Compound 47, 2-chloro-N-(6-ethyl-5-((E)-2-(2-(((1r,4r)-4-(methylamino)cyclohexyl)amino)pyrimidin-5-yl)vinyl)pyridin-2-yl)benzenesulfonamide] | ≤ 1 |  | 5 to 50 | > 75

The next lines start with results.

IC50 (IRE1α [1]) [nM] | IC50 (IRE1) [nM] | EC50 (IRE1α [2]) [nM] | SMILES | viability at 5 µM (293T cells) [%]
≤ 1 | 4.95 | ≤ 5 | COc1nc(NS(=O)(=O)c2ccccc2Cl)ccc1/C=C/c1cnc(NC2CCC(N(C)C)CC2)nc1 (centres unmarked) [Compound 17, 2-chloro-N-(5-((E)-2-(2-(((1r,4r)-4-(dimethylamino)cyclohexyl)amino)pyrimidin-5-yl)vinyl)-6-methoxypyridin-2-yl)benzenesulfonamide] | > 75
≤ 1 | 4.39 | ≤ 5 | Cc1nc(NS(=O)(=O)c2ccccc2Cl)ccc1/C=C/c1cnc(NC2CCC(N(C)C)CC2)nc1 (centres unmarked) [Compound 23, 2-chloro-N-(5-((E)-2-(2-(((1r,4r)-4-(dimethylamino)cyclohexyl)amino)pyrimidin-5-yl)vinyl)-6-methylpyridin-2-yl)benzenesulfonamide] | > 75
